{"source": "patent US20200378993A1", "about": "“MEDICAL USES OF APOLIPOPROTEIN A AND ACTIVATORS THEREOF” (FUNDACIÓN IMDEA ALIMENTACIÓN, priority 2017, published 2020)", "type_in_all_cases": "cell-based, human", "key": {"caveolin-1": {"tested_on": "caveolin-1", "assay": "Caveolin-1 immunodetection by Western blot", "conditions": "RVX-208 (30 μM) versus DMSO carrier", "method": "FIG. 7. A) Proliferation curve in a viability assay carried out by means of XCELLigence technology. Growth of DLD1 cells treated with DMSO as the drug carrier and with Rvx-208 (30 μM). The significant differences existing in the slope of the graph, and therefore in the growth dynamics of the treated cells are shown in the right panel (****p-value<0.0001). B) Migration and invasion assays. The method followed was the same as the one described in FIG. 2 (*p-value=0.0407; ****p-value<0.0001). C) Expression levels of proteins E-cadherin and Vimentin in the presence and absence of Rvx-208. Analysis performed by means of quantitative PCR. The relative expression levels normalized with respect to the untreated control are shown. D) ABCA1, ApoA1, caveolin-1, and α-tubulin immunodetection by means of Western blot. α-tubulin acts as load control. The results of the cells treated with Rvx-208 (30 μM) or with the DMSO carrier are shown. E) Cholesterol flux in cells treated with Rvx-208. […]\nThe inventors were able to confirm said results based on the treatment of DLD1 cells expressing ABCA1 with RVX-208 under the conditions already described in detail in Example 3. […] The levels of caveolin-1, a protein whose increased levels have been associated with increases in cell migration and invasion, were also analyzed in this experiment."}, "[1]": {"tested_on": "DLD1 cells overexpressing ABCA1", "assay": "Growth of Matrigel-embedded spheroids", "conditions": "treatment with Rvx-208; Matrigel-embedded spheroids from DLD1 cells overexpressing ABCA1", "description": "FIG. 8: A) Growth of spheroids derived from control cells and cells overexpressing ABCA1. The top panels correspond to the control treatment (carrier), the bottom panels correspond to treatment with Rvx-208. The growth curves represent the mean volume of a total of 30 spheroids per cell line. The inventors were able to confirm said results based on the treatment of DLD1 cells expressing ABCA1 with RVX-208 under the conditions already described in detail in Example 3. In this case, the DLD1 cells overexpressing ABCA1 were pre-treated for 72 hours before the start of the experiment with RVX-208 at a concentration of 30 μm and were subjected to a treatment with 15 μM of RVX-208 during the development of the experiments. […] The levels of caveolin-1, a protein whose increased levels have been associated with increases in cell migration and invasion, were also analyzed in this experiment."}, "vimentin": {"tested_on": "vimentin", "assay": "Epithelial-mesenchymal transition marker expression by quantitative PCR", "conditions": "RVX-208 30 μm 72 hours then 15 μM", "method": "(§1) FIG. 4. A) Proliferation curve in a viability assay carried out by means of XCELLigence technology. Growth of DLD1 cells treated with DMSO as the drug carrier and with Rvx-208 (30 μM). The significant differences existing in the slope of the graph, and therefore in the growth dynamics of the treated cells are shown in the right panel (**p-value=0.0087). B) Image representing the untreated cell cultures and those treated with Rvx-208. Expression levels of proteins E-cadherin and vimentin in the presence and absence of Rvx-208. Analysis performed by means of quantitative PCR. The relative expression levels normalized with respect to the untreated control are shown. C) Migration and invasion assays in the presence of Rcx-208. FIG. 7. A) Proliferation curve in a viability assay carried out by means of XCELLigence technology. Growth of DLD1 cells treated with DMSO as the drug carrier and with Rvx-208 (30 μM). The significant differences existing in the slope of the graph, and therefore in the growth dynamics of the treated cells are shown in the right panel (****p-value<0.0001). B) Migration and invasion assays. The method followed was the same as the one described in FIG. 2 (*p-value=0.0407; ****p-value<0.0001). C) Expression levels of proteins E-cadherin and Vimentin in the presence and absence of Rvx-208. Analysis performed by means of quantitative PCR. The relative expression levels normalized with respect to the untreated control are shown. D) ABCA1, ApoA1, caveolin-1, and α-tubulin immunodetection by means of Western blot. α-tubulin acts as load control. The results of the cells treated with Rvx-208 (30 μM) or with the DMSO carrier are shown. E) Cholesterol flux in cells treated with Rvx-208. The same assays were repeated by replacing ApoA1 with a treatment with RVX-208. In this case, DLD1 cells were pre-treated for 72 hours before the start of the experiment with RVX-208 at a concentration of 30 μm and were subjected to a treatment with 15 μM of RVX-208 during the development of the experiments. […] The inventors were able to confirm said results based on the treatment of DLD1 cells expressing ABCA1 with RVX-208 under the conditions already described in detail in Example 3. In this case, the DLD1 cells overexpressing ABCA1 were pre-treated for 72 hours before the start of the experiment with RVX-208 at a concentration of 30 μm and were subjected to a treatment with 15 μM of RVX-208 during the development of the experiments. […] The levels of caveolin-1, a protein whose increased levels have been associated with increases in cell migration and invasion, were also analyzed in this experiment."}, "E-cadherin": {"tested_on": "E-cadherin", "assay": "Epithelial-mesenchymal transition marker expression by quantitative PCR", "conditions": "RVX-208 30 μm 72 hours then 15 μM", "method": "as §1"}, "[2]": {"conditions": "DLD1 cells overexpressing ABCA1"}}}
{"smiles": "COc1cc(OC)c2c(=O)[nH]c(-c3cc(C)c(OCCO)c(C)c3)nc2c1", "note": "[RVX-208, 2-(4-(2-hydroxyethoxy)-3,5-dimethylphenyl)-5,7-dimethoxyquinazolin-4(3H)-one]", "values": [{"measurement": "caveolin-1 protein levels", "setting": "caveolin-1", "result": "capable of reducing the levels of said protein"}, {"measurement": "growth of three-dimensional structures (spheroids)", "setting": "[1]", "result": "slows down the growth"}, {"measurement": "vimentin levels", "setting": "vimentin; DLD1 cells", "result": "decrease in vimentin levels"}, {"measurement": "vimentin levels", "setting": "vimentin; [2]", "result": "decrease in vimentin levels"}, {"measurement": "E-cadherin expression levels", "setting": "E-cadherin; DLD1 cells", "result": "increase in E-cadherin expression levels"}, {"measurement": "E-cadherin expression levels", "setting": "E-cadherin; [2]", "result": "increase in E-cadherin expression levels"}]}
